The results in this text go back to US4847271A, “Antihypercholesterolemic β-lactones” (Merck & Co., Inc., priority 1987, dated 1989).

One test concerns the target T1, HMG-CoA synthase (Rattus norvegicus, UniProt P17425).
T1 construct: The livers from male Charles River CD rats (225-350 g) were homogenized in 0.25 M sucrose; from tissue; host or cells: rat liver (male Charles River CD rats), 100,000×g supernatant, ammonium sulfate precipitate, DEAE-52 fraction
T1 sequence (P17425 1-520): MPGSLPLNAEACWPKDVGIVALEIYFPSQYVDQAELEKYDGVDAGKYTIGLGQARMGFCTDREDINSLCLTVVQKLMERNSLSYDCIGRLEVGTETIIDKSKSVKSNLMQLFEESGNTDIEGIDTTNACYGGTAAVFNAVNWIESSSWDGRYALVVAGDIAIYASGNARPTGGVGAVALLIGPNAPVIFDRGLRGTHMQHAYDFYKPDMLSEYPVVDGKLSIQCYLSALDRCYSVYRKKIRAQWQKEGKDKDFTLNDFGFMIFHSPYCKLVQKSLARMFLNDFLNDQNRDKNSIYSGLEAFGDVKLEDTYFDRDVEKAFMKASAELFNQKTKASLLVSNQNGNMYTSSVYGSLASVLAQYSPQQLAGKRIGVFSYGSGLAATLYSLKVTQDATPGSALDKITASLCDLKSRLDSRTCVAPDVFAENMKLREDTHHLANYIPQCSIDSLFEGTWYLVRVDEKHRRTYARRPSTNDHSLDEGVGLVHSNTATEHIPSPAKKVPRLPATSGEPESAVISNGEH
In words: HMG-CoA synthase inhibition assay (in vitro, enzyme partially purified from rat liver). In kind it is biochemical. Particulars: HMG-CoA synthase activity; 5 min preincubation, 30°; read-out: IC50. On the procedure:
The intrinsic HMG-CoA synthase inhibition activity of the compounds of this invention is measured by the standard in vitro protocol described below:
The livers from male Charles River CD rats (225-350 g) were homogenized in 0.25 M sucrose which was adjusted with phenylmethylsulfonylfluoride (PMSF) and N-p-tosyl-1-lysine chloromethyl ketone (TLCK) so that the final concentration of each was 50 and 25 μg/ml, respectively. The homogenate was centrifuged at 15,000×g for 20 minutes, the supernatant filtered through a fine nylon screen to remove most of the fat layer and recentrifuged at 100,000×g for 1 hour. This supernatant was removed and 1 M potassium phosphate, dithiothreitol (DTT) and ethylene glycolbis(β-aminoethyl ether)-N,N,N',N'-tetraacetic acid (EGTA) added to give a final concentration of 0.1 M (pH 7.2), 0.5 mM and 0.1 mM, respectively. Solid ammonium sulfate was added to 50% saturation to the protein solution, it was centrifuged at 15,000×g and the […]. This precipitated protein could be stored at -70° for at least one month with very little loss of activity. The ammonium sulfate rrecipitate was dissolved in an minimal amount of 0.06 M potassium phosphate buffer (pH 7.2) containing 0.5 mM dithiothreitol and 0.1 mM EGTA (referred to as 0.06 M phosphate buffer) and dialyzed overnight against 2 liters of the same buffer to remove the ammonium sulfate and to inactivate HMG-CoA lyase [Clinkenbeard, et al., J. Biol. Chem 250, 3108-3116(1975)].
The dialyzed extract was added to a column of DEAE-52 (Whatman) which had been equilibrated with 0.06 M phosphate buffer (10 mg of protein to 1 ml bed volume of the resin). The DEAE-cellulose was eluted with 0.06 M Phosphate buffer until the optical density at 280 nm was essentially zero. This fraction contained the β-ketoacetyl-CoA thiolase activity. The HMG-CoA synthase was eluted from the column with 0.1 M phosphate buffer (pH 7.2) containing 0.5 mM DTT and 0.1 mM EGTA, and was virtually free of all thiolase activity. The protein was precipitated by the addition of ammonium sulfate to give 50% saturation. This solution was stirred for 10 minutes at 4° C. and the precipitate collected by centrifugation at 15,000 rpm for 10 minutes. The supernatant was discarded and the precipitate dissolved in a minimum of 0.06 M phosphate buffer, pH 7.2 (about 10 ml) and the enzyme stored at -80° C.
HMG-CoA Synthase Inhibition Assay
Enzyme protein (ca. 24 μg) was added to a solution containing 117 mM Tris-HCl (pH 8.0), 11.7 mM MgCl2, 1.17 mM Ethylenediaminetetraacetic acid (EDTA), 0.58 mM dithiothreitol, and the indicated concentrations of the test compound (added as a 2 μg/ml solution in dimethylsulfoxide). The incubation took place in a volume of 0.085 ml at 30° in a shaking water bath. After 5 minutes, 15 μl of a solution containing acetoacetyl-CoA and 0.1 μCi of 1-[^14 C]-acetyl-CoA was added to give a final concentrations of 0.1 and 0.4 mM, respectively. The incubation was continued for 10 more minutes and the reaction stopped by the addition of 50 μl of the assay mixture to 0.2 ml of 6N HCl in a glass scintillation vial. The vial was heated for 1 hour at 120° after which time 0.2 ml more of 6N HCl was again added to each vial and the heating continued for another hour. Following this, 1.0 ml of 0.9% saline was added to each vial and finally 10 ml of scintillation liquid. Radioactivity was determined in a Packard Tri-Carb liquid scintillation counter. Percent inhibition is calculated by the formula: [formula] IC50 values were determined by plotting the log of the concentration of the test compound verses the percentage inhibition and fitting a straight line to the resulting data by using the least squares method.
On to `CC(=CC(=O)Sc1ccccn1)C=C(C)CC(C)CCCCC1OC(=O)C1CO` (stereo not drawn) [2-pyridyl 11-(3-hydroxymethyl-4-oxo-2-oxetano)-3,5,7-trimethyl-2,4-undecadienthioate], for which the IC50 was 120 nM.

Take `CCCCCCNC(=O)C=C(C)C=C(C)CC(C)CCCCC1OC(=O)C1CO` (stereo not drawn) [Example 7, N-n-hexyl 11-(3-hydroxymethyl-4-oxo-2-oxetano)-3,5,7-trimethyl-2,4-undecadienamide]: the IC50 amounted to 200 nM. For the molecule `CC(=CC(N)=O)C=C(C)CC(C)CCCCC1OC(=O)C1CO` (stereo not drawn) [Example 8, 11-(3-hydroxymethyl-4-oxo-2-oxetano)-3,5,7-trimethyl-2,4-undecadienamide], the IC50 was less than 100 nM. Still for that read-out and setting: the figure for `CC(=CC(=O)Nc1ccc(Br)cc1)C=C(C)CC(C)CCCCC1OC(=O)C1CO` (stereo not drawn) [Example 9, N--(4-bromophenyl)-11-(3-hydroxymethyl-4-oxo-2-oxetano)-3,5,7-trimethyl-2,4-undecadienamide] is 100 nM; for `CC(=CC(=O)NCCO)C=C(C)CC(C)CCCCC1OC(=O)C1CO` (stereo not drawn) [Example 10, N--(2-hydroxyethyl)-11-(3-hydroxymethyl-4-oxo-2-oxetano)-3,5,7-trimethyl-2,4-undecadienamide] it is less than 100 nM.

For `COCC1C(=O)OC1CCCCC(C)CC(C)=CC(C)=CC(=O)OC` (stereo not drawn) [Example 11, methyl 11-(3-methoxymethyl-4-oxo-2-oxetano)-3,5,7-trimethyl-2,4-undecadienoate], the IC50 worked out at 270 nM.

As for `CCOCC1C(=O)OC1CCCCC(C)CC(C)=CC(C)=CC(=O)OC` (stereo not drawn) [Example 12, methyl 11-(3-ethoxymethyl-4-oxo-2-oxetano)-3,5,7-trimethvl-2.4-undecadienoate], the IC50 was 700 nM. As for `C=CCOCC1C(=O)OC1CCCCC(C)CC(C)=CC(C)=CC(=O)OC` (stereo not drawn) [Example 13, methyl 11-[3-(2-propenyloxymethyl)-4-oxo-2-oxetano]-3,5,7-trimethyl-2,4-undecadienoate], the IC50 worked out at 1000 nM. For the molecule `COCC1C(=O)OC1CCCCC(C)CC(C)=CC(C)=CC(=O)O` (stereo not drawn) [Example 14, 11-(3-methoxymethyl-4-oxo-2-oxetano)-3,5,7-trimethyl-2,4-undecadienoic acid], the IC50 worked out at 110 nM. Turning to `COc1ccc(C(OCC2C(=O)OC2CCCCC(C)CC(C)=CC(C)=CC(=O)O)(c2ccccc2)c2ccccc2)cc1` (stereo not drawn) [Example 15, 11-(3-anisyldiphenylmethyloxymethyl-4-oxo-2-oxetano)-3,5,7-trimethyl-2,4-undecadienoic acid], the IC50 is 10000 nM. Still for that read-out and setting: the figure for `COC(=O)C=C(C)C=C(C)CC(C)CCCCC1OC(=O)C1COS(C)(=O)=O` (stereo not drawn) [Example 16, methyl 11-(3-methanesulfonyloxymethyl-4-oxo-2-oxetano)-3,5,7-trimethyl-2,4-undecadienoate] is 240 nM; for `COC(=O)C=C(C)C=C(C)CC(C)CCCCC1OC(=O)C1COC=O` (stereo not drawn) [Example 17, methyl 11-(3-formyloxymethyl-4-oxo-2-oxetano)-3,5,7-trimethyl-2,4-undecadienoate] it is 140 nM.

Regarding `CC(=CC(=O)OC(C)(C)C)C=C(C)CC(C)CCCCC1OC(=O)C1CO` (stereo not drawn) [Example 20, tert-butyl 11-(3-hydroxymethyl-4-oxo-2-oxetano)-3,5,7-trimethyl-2,4-undecadienoate], the IC50 came to 500 nM. On the same count and under the same terms, for `COC(=O)C=C(C)C=C(C)CC(C)CCCCC1OC(=O)C1COC(=O)CCC(=O)O` (stereo not drawn) [methyl 11-[3-(3-carboxypropionyloxymethyl)-4-oxo-2-oxetano]-3,5,7-trimethyl-2,4-undecadienoate] the value was 2400 nM.

Still in this test, the particulars now being: at 4.0 μg/ml.
“methyl 11-[3-(N-methylurethanylmethyl)-4-oxo-2-oxetano]-3,5,7-trimethyl-2,4-undecadienoate [Example 19]” had a percent inhibition of 86.2%.

The same test, now with this note: at 40 μg/ml.
As for “methyl 11-(3-urethanylmethyl)-4-oxo-2-oxetano)-3,5,7-trimethyl-2,4-undecadienoate”, the percent inhibition came out at 80.6%.

The test is the same for the next values; noted with them: at 10^-5 M (IC25); read-out: percent inhibition.
Usually inhibition stands for the change of the read-out against control, counted positive when it falls. Regarding `CCC(C)C(=O)OCC1C(=O)OC1CCCCC(C)CC(C)=CC(C)=CC(=O)OC` (stereo not drawn) [Example 18, methyl 11-[3-(2-methylbutyryloxymethyl)-4-oxo-2-oxetano]-3,5,7-trimethyl-2,4-undecadienoate], the inhibition at 10 µM came to 25.4%.

The same test, now with this note: printed as (40 μg/ml) without footnote; read-out: IC50 (value printed in brackets as a concentration) (converted).
Regarding `COCC1C(=O)OC1CCCCC(C)CC(C)=CC(C)=CC(=O)OC(c1ccccc1)c1ccccc1` (stereo not drawn) [Example 14 Step B, Diphenylmethyl 11-(3-methoxymethyl-4-oxo-2-oxetano)-3,5,7-trimethyl-2,4-undecadienoate], the IC50 was 79300 nM.
